This note sets out measurements from patent publication US20170266168A1, “METHODS FOR PREVENTING OR TREATING OSTEOARTHRITIS” (RUSH UNIVERSITY MEDICAL CENTER, priority 2014, published 2017).

In experiment [1] the test system is whole knee joints of Has1KO mice with patellar groove cartilage injury. As to the kind of experiment: Whole joint gene expression (TAQMAN qPCR, RT2 Profiler NF-κB and Fibrosis arrays) after cartilage injury. The format is in vivo. As to the method: (§1) Under approved IACUC protocols, a confined non-bleeding cartilage injury was created in the patellar groove of the right legs of 12-wk old male WT and Has1KO (C57Bl6) mice. Pirfenidone was provided in the chow (5 mg/g, Harlan) starting 3 days after surgery, and mice ingested about 600 mg pirfenidone/kg body weight daily. Joint tissue pathology was evaluated by photography of joint tissue surfaces after India Ink application (FIG. 1) and by histology of the intact joint with Safranin-O and Masson's Trichrome stained sections (FIG. 2.) For gene expression studies, skin and muscle was removed and whole knee joints were stored in RNALater. Inventoried TAQMAN® probes for Gapdh, Has2, Tnfaip6, Col1a1, Col3a1 and Vcan V2 were used to measure expression at 0, 7, 14, and 28 days post-injury, and Qiagen RT2 Profiler PCR Assay mouse arrays for NF-κB (PAMM-225ZA) and Fibrosis (PAMM-120ZA) pathways were used to assay whole joints at 21-28 days after injury, with and without pirfenidone treatment. Relative mRNA abundance was calculated as 1000×2−ΔCt, with ΔCt defined as Ct of the gene of interest minus Ct of Gapdh. Fold change was defined as abundance at a time point divided by abundance in the naïve condition for the same genotype.
(Quantitative PCR measures a nucleic acid by following its amplification.)

In experiment [2] the test system is Has1KO mice with patellar groove cartilage injury. As to the kind of experiment: Joint tissue pathology by histology (Safranin-O, Masson's Trichrome) after cartilage injury. It counts as in vivo. The protocol: as §1
In the same way, the effects on expression of pro-inflammatory and pro-fibrotic genes were accompanied by profound effects on tissue pathology. A histologic examination of sagittal sections across the entire joint was done on 3 mice from each group.

For another experiment, the system named is injured Has1KO joints. As to the kind of experiment: Micro-computed Tomography of bone structure after cartilage injury. The format is in vivo, mice. The note with it: femur posterior to trochlear groove, day 28. The text has this:
The effect of pirfenidone administration on bone structure was examined using Micro-computed Tomography (micro-CT) to identify bone differences (FIG. 7). The regions of interest examined included the trabecular bone in the femur directly posterior to the trochlear groove, where the defect was created (FIG. 8) and the cortical bone of the femoral midshaft (FIG. 9.) The trabecular bone parameters, obtained using micro-CT, indicate a recovery in injured Has1KO joints of bone-to-total volume, connectivity density, trabecular number, trabecular thickness, and trabecular separation to naive levels, surpassing even injured WT in bone recovery, and are shown in FIG. 10.

Where [3] appears, read: 24 day drug treatment post injury.
[4] abbreviates: sagittal sections across entire joint, 3 mice per group.

In the case of `Cc1ccc(=O)n(-c2ccccc2)c1` [pirfenidone, 5-methyl-1-phenylpyridin-2-one], in experiment [1] (setting [3]), the “activation of anti-apoptotic, anti-fibrotic and matrix remodeling genes (Sod2, Ccl12, Il13ra2, Serpine1, Timp1)” value is given as “enhanced”; the “expression of genes in the Nf-κB and Fibrosis pathways (arrays of 84 genes each)” value is “marked effect”. Moreover, the “expression of genes linked to the aberrant wound healing responses” value in experiment [1] (pirfenidone in chow 5 mg/g (about 600 mg/kg daily) from 3 days after surgery, whole joint) is listed as “normalized”. Besides, the “Has2 expression (delayed and more prolonged than in WT)” value in experiment [1] (pirfenidone in chow, whole joint) is “normalized”. Besides, the “Tnfaip6 expression (enhanced at 2 weeks in Has1KO)” value in experiment [1] (pirfenidone in chow, whole joint, 2 weeks) is reported as “normalized”. Moreover, the “Vcan V2 expression (markedly inhibited in Has1KO)” value in experiment [1] (pirfenidone in chow, whole joint, 7 days) was “inhibition was corrected”. In addition, the “loss of cartilage and subchondral bone in the joint after cartilage injury” value in experiment [2] (Has1KO, 4 weeks post-injury, Safranin-O stained) is on record as “reduces”. In experiment [2] (setting [4]), the “Safranin-O staining in the cartilages (including growth plates)” value is recorded as “marked enhancement” and the “appearance of fibrotic tissues” value is “blocked”. The “trabecular bone parameters (bone-to-total volume, connectivity density, trabecular number, thickness, separation)” value in the experiment with injured Has1KO joints is “recovery”.
